Read-outs that look alike come from different tables or passages of the source. Ends that are not written are not given here.
Experiments:
[1] = test system: P. aeruginosa; details: P. aeruginosa (H103)
Method: (§1) Effect of formulation on bactericidal activity and MIC was determined using the test solutions listed below.
(§2) The media used in this experiment was Cation Adjusted Muller Hinton (CAMHB), and CAMHB +8 mM citrate.

[2] = test system: A. calcoacet.
Method: as §1, §2

[3] = test system: P. aeruginosa; assay: Effect of formulation on bactericidal activity (killing, survivors over time); format: cell-based
Method: as §1

[4] = test system: E. cloacae
Method: as §1, §2

[5] = test system: E. coli
Method: as §1, §2

[6] = test system: S. typhimurium; details: S. typhimurium (C610)
Method: as §1, §2

[7] = mice
Method: Immediately afterwards LPS (10 or 20 μg) in 100 μl is injected. The mice are observed at 24 and 48 hours after injections and survivors noted.

[8] = test system: E. facaelis; details: E. facaelis (C625)
Method: as §1, §2

[9] = test system: LPS-induced TNF in RAW 264.7 macrophage cells; assay: Inhibition of LPS-induced TNF in RAW 264.7 macrophages (L929 cytotoxic assay); format: cell-based, mouse; details: for depression of TNF induction by aspirated medium containing peptide: fresh RAW cells
Method: RAW 264.7 macrophage cells were grown by seeding 10^6 cells into a 162 cm^2 cell culture flask and incubated at 37° C., 5% CO2 for 1 week. RAW cell media [(Dulbecco's Modified Eagle Medium with Hepes buffer 450 ml; 2.4 mML-glutamine 3 ml (400 mM); Pen/Strep 3 ml (10^4 U/ml of Pen, 1 mg/ml strep); and 10% heat inactivated fetal bovine serum (FBS) 50 ml)] was then completely removed from flasks. 10 mls of cell dissociation solution (Sigma) was added to each flask and inc; bated at 37° C. for 10 minutes. Cells were removed from flasks, diluted in RAW cell media and centrifuged for 6 minutes. The cell pellet was resuspended in 5 ml of media/flask used, 100 μl cell suspension was removed and added to 400 μl of trypan blue and cells were counted using a hemocytometer. The cell suspension was diluted to 1×10^6 cells/ml and 1 ml of suspension was added per well of a 24 well plate. The 24 well plates were incubated at 37° C., 5% CO2 overnight for use in the assay.
After an overnight incubation, the media was aspirated from all the wells. 100 μl of Lipopolysaccharide (LPS) was added at 100 ng/100 μl. CEME, CEMA or MBI 29 was added at the desired concentration/100 μl to specified wells. […] The plates were then incubated for six hours at 37° C., 5% CO2. The supernatant was then removed from the wells and stored overnight at 4° C. For those wells in which whole bacteria were added directly to the wells, the supernatant was centrifuged in 0.2 μm filter eppendorf tubes for 5 minutes.
The supernatants were then used in cell cytotoxic L929 assay. The samples were transferred to 96 well plates. 50 μl of TNF media was added to all the wells in all the plates except to those wells in the first row. 10 μl of murine TNF standard (20 ng/ml) and 90 μl of TNF media was added in duplicate to the plate and diluted 1:2 down the plate to the second to last row. Test samples (75 μl), comprising the supernatants from the RAW cell assays, were added to separate rows in duplicate and diluted 1:3 to the second to last rows.
TNF-sensitive L929 mouse fibroblast cells were grown by seeding 10^6 cells into a 162 cm^2 cell culture flask and left to grow for 1 week. L929 cells were removed from the flask with 10 mls of trypsin-EDTA/flask and incubated 3-5 minutes. Cell suspension was diluted and centrifuged for 6 minutes. The pellet was resuspended in 5 mls of fresh L929 media/flask and counted (same as RAW cells). Cell suspension was diluted to 10^6 cells/ml. 100 μl was used to inoculate each well of the 96 well plates with the supernatants. (L929 Growth Media was the same as RAW cell media except instead of FBS, 50 mls of 10% heat inactivated horse serum was utilized; TNF Assay Media was the same as RAW cell media except 4 μg/ml Actinomycin D was added.)
The plates were incubated at 37° C. at 5% CO2 for 2 days. The media was then aspirated and replaced with 100 μl of the dye MTT (0.5 mg/ml) in modified Eagle Medium without phenol red. The plates were then incubated at 37° C. at 5% CO2 for 3 hours. The dye was then removed and replaced with 100 μl of absolute ethanol. […]
The plates were read at 570 nm in a ELISA plate reader with 690 nm reference filter. […]
TNF levels were measured six hours after the addition of E. coli 0111:B4 or E. coli Bort LPS (FIGS. 5a, 5b, 5c and FIGS. 6a and 6c as labeled). […]
In order to determine how rapidly the cationic peptides reduced LPS-induced TNF production, E. coli 0111:B4 was added at time 0 to RAW macrophages. […] Levels of TNF were measured after 6 hours. […]

[10] = test system: RAW cells; assay: RAW cell viability by Trypan blue exclusion; format: cell-based; details: up to 50 μg peptide

KWKSFIKKLTSAAKKVVTTAKPLISS [MBI 26]
MIC ([1]; CAMHB): 16 µg/mL
MIC ([1]; CAMHB + Citrate (8 mM)): 2 µg/mL
MIC ([2]; A. calcoacet (C403), CAMHB): 1 µg/mL
MIC ([2]; A. calcoacet (C403), CAMHB + Citrate (8 mM)): 1 µg/mL
MIC ([2]; A. calcoacet. (C402), CAMHB): 8 µg/mL
MIC ([2]; A. calcoacet. (C402), CAMHB + Citrate (8 mM)): 4 µg/mL
Survivors at Time (min.) ([3]; Citrate (0.129 M) +Ascorbic Acid (100 mM), MBI 26 10 MG/ML, 0 min): 1.3 × 10^7
Survivors at Time (min.) ([3]; Citrate (0.129 M) +Ascorbic Acid (100 mM), MBI 26 10 MG/ML, 15 min): 0
Survivors at Time (min.) ([3]; Citrate (0.129 M) +Ascorbic Acid (100 mM), MBI 26 10 MG/ML, 30 min): 0
Survivors at Time (min.) ([3]; Citrate (0.129 M) +Ascorbic Acid (100 mM), MBI 26 10 MG/ML, 60 min): 0
Survivors at Time (min.) ([3]; Citrate (0.129 M), MBI 26 10 MG/ML, 0 min): 1.1 × 10^7
Survivors at Time (min.) ([3]; Citrate (0.129 M), MBI 26 10 MG/ML, 15 min): 0
Survivors at Time (min.) ([3]; Citrate (0.129 M), MBI 26 10 MG/ML, 30 min): 0
Survivors at Time (min.) ([3]; Citrate (0.129 M), MBI 26 10 MG/ML, 60 min): 0
Survivors at Time (min.) ([3]; Citrate-Dextrose, MBI 26 10 MG/ML, 0 min): 9 × 10^6
Survivors at Time (min.) ([3]; Citrate-Dextrose, MBI 26 10 MG/ML, 15 min): 20
Survivors at Time (min.) ([3]; Citrate-Dextrose, MBI 26 10 MG/ML, 30 min): 0
Survivors at Time (min.) ([3]; Citrate-Dextrose, MBI 26 10 MG/ML, 60 min): 0
Survivors at Time (min.) ([3]; Citrate-Phosphate Dextrose, MBI 26 10 MG/ML, 0 min): 0
Survivors at Time (min.) ([3]; Citrate-Phosphate Dextrose, MBI 26 10 MG/ML, 30 min): 0
Survivors at Time (min.) ([3]; Citrate-Phosphate Dextrose, MBI 26 10 MG/ML, 60 min): 0
Survivors at Time (min.) ([3]; Dextran, MBI 26 (20 μg), 0 min): 1.9 × 10^7
Survivors at Time (min.) ([3]; Dextran, MBI 26 (20 μg), 15 min): 1.2 × 10^6
Survivors at Time (min.) ([3]; Dextran, MBI 26 (20 μg), 30 min): 1 × 10^6
Survivors at Time (min.) ([3]; Dextran, MBI 26 (20 μg), 60 min): 8.5 × 10^5
MIC ([4]; E. cloacae (C601), CAMHB): 8 µg/mL
MIC ([4]; E. cloacae (C601), CAMHB + Citrate (8 mM)): 4 µg/mL
MIC ([4]; E. cloacae (C602), CAMHB): 8 µg/mL
MIC ([4]; E. cloacae (C602), CAMHB + Citrate (8 mM)): 4 µg/mL
MIC ([4]; E. cloacae (C603), CAMHB): 4 µg/mL
MIC ([4]; E. cloacae (C603), CAMHB + Citrate (8 mM)): 2 µg/mL
MIC ([5]; E. coli (111:B4), CAMHB): 8 µg/mL
MIC ([5]; E. coli (111:B4), CAMHB + Citrate (8 mM)): 2 µg/mL
MIC ([5]; E. coli (Bort), CAMHB): 16 µg/mL
MIC ([5]; E. coli (Bort), CAMHB + Citrate (8 mM)): 8 µg/mL
MIC ([5]; E. coli (UB 1005), CAMHB): 4 µg/mL
MIC ([5]; E. coli (UB 1005), CAMHB + Citrate (8 mM)): 2 µg/mL
MIC ([6]; CAMHB): 8 µg/mL
MIC ([6]; CAMHB + Citrate (8 mM)): 2 µg/mL
non-toxic dose [7]: up to 30.6 mg/kg
MIC ([8]; CAMHB): 16 µg/mL
MIC ([8]; CAMHB + Citrate (8 mM)): >32 µg/mL

CC[C@H](C)[C@H](NC(=O)[C@H](CC(C)C)NC(=O)[C@H](C)NC(=O)[C@@H]1CCCN1C(=O)[C@H](CC(C)C)NC(=O)CNC(=O)[C@@H](NC(=O)[C@@H](NC(=O)[C@H](CC(C)C)NC(=O)[C@@H](NC(=O)[C@H](CCCCN)NC(=O)[C@H](CCCCN)NC(=O)[C@@H](NC(=O)[C@H](C)NC(=O)[C@@H](NC(=O)[C@@H](NC(=O)[C@H](CC(C)C)NC(=O)[C@H](CCCCN)NC(=O)[C@H](CCCCN)NC(=O)[C@@H](NC(=O)[C@H](Cc1ccccc1)NC(=O)[C@H](CO)NC(=O)[C@H](CCCCN)NC(=O)[C@H](Cc1c[nH]c2ccccc12)NC(=O)[C@@H](N)CCCCN)[C@@H](C)CC)[C@@H](C)O)[C@@H](C)O)C(C)C)C(C)C)[C@@H](C)O)[C@@H](C)O)C(=O)N[C@@H](CO)C(=O)O [MBI 29]
TNF induction in RAW cells preincubated with peptide and washed ([9]; 20 μg peptide 60 minutes, washed 3 times, then 10 ng or 100 ng LPS): 14,000-20,000 Units of TNF per ml
inhibition of TNF induction by LPS ([9]; E. coli 0111:B4 at time 0, peptide added at 0, 30 and 60 minutes, TNF after 6 hours): inhibited TNF induction by LPS in a similar manner to polymyxin B
reduction of LPS-induced TNF when added after LPS ([9]; added 60 minutes after the addition of LPS): effective
depression of TNF induction by aspirated medium containing peptide ([9]; 10 ng E. coli LPS): 98.5%
depression of TNF induction by aspirated medium containing peptide ([9]; 100 ng E. coli LPS): 75%
RAW cell viability [10]: no apparent decrease

— patent US6906035B2, “Antimicrobial cationic peptides” (priority 1995, dated 2005)
